Experimental data: ChEMBL document CHEMBL4507265 (2021)

Tests used:
Rattus norvegicus = species on record: Rattus norvegicus; test: Inhibition of Glutamate, NMDA, Phencyclidine at 10 µM in the Eurofins-Panlabs radioligand binding assay (Eurofins_assay_233000); type: protein-complex assay; conditions: Compound concentration 10.0 uM
[1] = target: Neuropeptide Y receptor type 1 (Homo sapiens) (UniProt P25929); test: Inhibition of Neuropeptide Y Y1 at 10 µM in the Eurofins-Panlabs radioligand binding assay (Eurofins_assay_257010); conditions: Compound concentration 10.0 uM
Sequence of Neuropeptide Y receptor type 1 (Homo sapiens) (P25929 whole entry): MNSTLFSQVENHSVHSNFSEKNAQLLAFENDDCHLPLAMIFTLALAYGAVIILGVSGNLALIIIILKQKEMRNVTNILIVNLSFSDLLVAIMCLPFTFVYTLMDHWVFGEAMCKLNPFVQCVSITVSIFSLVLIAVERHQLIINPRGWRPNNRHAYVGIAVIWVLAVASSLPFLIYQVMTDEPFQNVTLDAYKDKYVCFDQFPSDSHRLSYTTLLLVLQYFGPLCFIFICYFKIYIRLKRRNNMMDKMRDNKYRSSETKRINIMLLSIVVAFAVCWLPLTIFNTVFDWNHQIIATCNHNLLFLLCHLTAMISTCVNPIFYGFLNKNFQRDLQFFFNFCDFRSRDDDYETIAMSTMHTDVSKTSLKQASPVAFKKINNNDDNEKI

[2] = target: T1, Alpha-1A adrenergic receptor (Homo sapiens) (UniProt P35348); conditions: Rattus norvegicus; Compound concentration 10.0 uM
T1 sequence (whole entry): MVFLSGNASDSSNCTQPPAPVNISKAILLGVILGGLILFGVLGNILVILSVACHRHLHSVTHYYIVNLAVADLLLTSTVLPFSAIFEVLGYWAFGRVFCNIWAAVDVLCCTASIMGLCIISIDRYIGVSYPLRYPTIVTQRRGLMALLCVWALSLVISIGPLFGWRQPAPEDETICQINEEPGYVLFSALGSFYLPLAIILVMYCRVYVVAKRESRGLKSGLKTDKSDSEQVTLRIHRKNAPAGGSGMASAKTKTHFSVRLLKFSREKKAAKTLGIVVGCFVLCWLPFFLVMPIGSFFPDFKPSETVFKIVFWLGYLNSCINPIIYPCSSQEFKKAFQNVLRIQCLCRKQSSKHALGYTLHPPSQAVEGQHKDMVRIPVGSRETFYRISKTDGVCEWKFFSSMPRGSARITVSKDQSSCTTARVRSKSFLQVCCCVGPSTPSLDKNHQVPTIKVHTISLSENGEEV

[3] = target: B2 bradykinin receptor (Homo sapiens) (UniProt P30411); conditions: Compound concentration 10.0 uM
Sequence of B2 bradykinin receptor (Homo sapiens) (P30411 whole entry): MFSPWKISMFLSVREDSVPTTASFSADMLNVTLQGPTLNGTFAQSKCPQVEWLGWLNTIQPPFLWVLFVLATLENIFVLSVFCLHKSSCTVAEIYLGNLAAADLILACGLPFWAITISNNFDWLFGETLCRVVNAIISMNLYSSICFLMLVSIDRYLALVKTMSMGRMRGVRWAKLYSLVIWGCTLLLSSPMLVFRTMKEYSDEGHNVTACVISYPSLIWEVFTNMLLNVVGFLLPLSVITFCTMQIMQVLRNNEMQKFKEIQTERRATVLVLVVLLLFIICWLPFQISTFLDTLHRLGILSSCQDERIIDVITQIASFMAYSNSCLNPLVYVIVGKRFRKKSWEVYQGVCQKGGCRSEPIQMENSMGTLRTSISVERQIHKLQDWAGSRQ

[4] = target: D(3) dopamine receptor (Homo sapiens) (UniProt P35462); conditions: Compound concentration 10.0 uM
Sequence of D(3) dopamine receptor (Homo sapiens) (P35462 whole entry): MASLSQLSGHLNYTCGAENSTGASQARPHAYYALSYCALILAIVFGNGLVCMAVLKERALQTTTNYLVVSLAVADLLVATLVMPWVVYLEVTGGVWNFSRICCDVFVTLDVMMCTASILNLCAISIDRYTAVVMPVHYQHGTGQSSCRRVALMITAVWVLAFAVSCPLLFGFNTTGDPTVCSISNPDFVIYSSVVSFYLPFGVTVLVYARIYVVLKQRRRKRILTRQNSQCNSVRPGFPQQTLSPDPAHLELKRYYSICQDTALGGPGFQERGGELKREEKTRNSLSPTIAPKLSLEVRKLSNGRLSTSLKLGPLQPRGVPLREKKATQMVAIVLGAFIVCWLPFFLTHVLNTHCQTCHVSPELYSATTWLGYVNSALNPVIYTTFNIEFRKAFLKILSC

[5] = target: Endothelin receptor type B (Homo sapiens) (UniProt P24530); conditions: Compound concentration 10.0 uM
Sequence of Endothelin receptor type B (Homo sapiens) (P24530 whole entry): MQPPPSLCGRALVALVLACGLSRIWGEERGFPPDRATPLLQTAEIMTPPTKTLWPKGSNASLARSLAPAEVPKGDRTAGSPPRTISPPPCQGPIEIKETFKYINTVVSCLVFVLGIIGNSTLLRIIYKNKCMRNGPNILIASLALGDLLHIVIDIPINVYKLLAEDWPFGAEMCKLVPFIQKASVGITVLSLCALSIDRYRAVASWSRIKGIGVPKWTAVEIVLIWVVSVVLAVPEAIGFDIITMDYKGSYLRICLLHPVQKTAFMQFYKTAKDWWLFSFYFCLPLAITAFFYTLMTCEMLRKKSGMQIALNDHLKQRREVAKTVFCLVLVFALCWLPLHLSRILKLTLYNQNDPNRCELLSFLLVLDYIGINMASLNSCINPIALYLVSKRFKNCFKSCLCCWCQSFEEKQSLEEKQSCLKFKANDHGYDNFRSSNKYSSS

[6] = target: Estrogen receptor (Homo sapiens) (UniProt P03372); conditions: Compound concentration 10.0 uM
Sequence of Estrogen receptor (Homo sapiens) (P03372 whole entry): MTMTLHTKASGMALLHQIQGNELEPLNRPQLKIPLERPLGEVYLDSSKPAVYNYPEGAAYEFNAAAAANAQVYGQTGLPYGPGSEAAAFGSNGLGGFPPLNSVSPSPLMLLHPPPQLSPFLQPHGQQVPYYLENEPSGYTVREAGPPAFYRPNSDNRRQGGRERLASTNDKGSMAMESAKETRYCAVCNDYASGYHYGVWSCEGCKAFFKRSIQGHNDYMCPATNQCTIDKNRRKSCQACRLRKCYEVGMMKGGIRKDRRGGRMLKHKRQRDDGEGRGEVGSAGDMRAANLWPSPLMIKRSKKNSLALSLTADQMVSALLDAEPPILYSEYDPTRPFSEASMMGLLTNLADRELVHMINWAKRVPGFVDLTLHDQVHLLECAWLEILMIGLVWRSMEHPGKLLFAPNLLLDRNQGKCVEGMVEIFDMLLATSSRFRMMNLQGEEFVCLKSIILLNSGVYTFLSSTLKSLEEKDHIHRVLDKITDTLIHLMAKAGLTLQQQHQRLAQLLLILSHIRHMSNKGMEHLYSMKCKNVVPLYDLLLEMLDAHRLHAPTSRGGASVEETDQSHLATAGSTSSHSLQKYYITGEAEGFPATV

[7] = target: Glutamate NMDA receptor (Rattus norvegicus) (UniProt P35439+Q00959+Q00960+Q00961+Q62645+Q8VHN2+Q9R1M7); conditions: Compound concentration 10.0 uM
[8] = target: T2, Muscarinic acetylcholine receptor M1 (Homo sapiens) (UniProt P11229); conditions: Compound concentration 10.0 uM
T2 sequence (whole entry): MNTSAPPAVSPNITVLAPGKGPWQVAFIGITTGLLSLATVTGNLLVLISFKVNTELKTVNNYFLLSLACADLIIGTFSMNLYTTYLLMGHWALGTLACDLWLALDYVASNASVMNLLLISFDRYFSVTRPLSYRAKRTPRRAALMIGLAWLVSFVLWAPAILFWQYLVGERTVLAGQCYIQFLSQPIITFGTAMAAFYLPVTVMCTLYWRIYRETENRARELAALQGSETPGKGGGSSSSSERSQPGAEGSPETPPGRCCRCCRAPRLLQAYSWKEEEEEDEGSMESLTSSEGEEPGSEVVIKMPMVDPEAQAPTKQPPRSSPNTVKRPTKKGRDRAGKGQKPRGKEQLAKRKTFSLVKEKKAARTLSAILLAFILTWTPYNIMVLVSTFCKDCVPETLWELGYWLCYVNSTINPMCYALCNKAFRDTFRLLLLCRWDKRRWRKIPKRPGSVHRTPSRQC

[9] = target: Purinergic P2Y (Rattus norvegicus) (UniProt O35811+Q9EPX4+P49651+Q63371+P41232+O35881+Q6GUG4); conditions: Compound concentration 10.0 uM

Measured: inhibition

NS(=O)(=O)c1cc(NC(=O)Cc2ccccc2)ccc1Oc1cccc(Cl)c1 [BAY-1797]
inactive: Rattus norvegicus -1% | [1] 9% | [2] 16% | [3] 10% | [4] 28% | [5] -1% | [6] 5% | [7] 23% | [8] -6% | [9] 14%
